{"source": "PubChem BioAssay AID330", "about": "(DTP/NCI, 2004)", "tested_on": "P388 leukemia ip, CD2F1 mice, survival T/C", "assay": "NCI In Vivo Anticancer Drug Screen. Data for tumor model P388 Leukemia (intraperitoneal) in CD2F1 (CDF1) mice", "settings": "endpoint: median survival time, higher = longer survival", "how_it_was_run": "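Mice carrying the transplanted tumor received test compound or vehicle. Survival was recorded in each group, and the value is the treated-group measurement divided by that of the vehicle-treated control group.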", "note": "Where “and” joins values, the source holds several entries; their conditions need not be identical. Equal entries are not always repeated. Inconclusive results and toxic doses are left out."}
{"compound": "CCC1(O)CC(OC2CC(N(C)C)C(OC3CC4OC5CC(=O)C(C)OC5OC4C(C)O3)C(C)O2)c2c(cc3c(c2O)C(=O)c2c(O)ccc(O)c2C3=O)C1C(=O)OC", "note": "(stereo not drawn)", "values": [{"measurement": "T/C", "setting": "dose: 0.5 mg/kg/injection, schedule: Q04DX003 (ip), vehicle: other", "result": "123 % of control"}, {"measurement": "T/C", "setting": "dose: 0.5 mg/kg/injection, schedule: Q04DX003 (ip), vehicle: saline with Tween-80", "result": "112 % of control and 110 % of control and 118 % of control"}, {"measurement": "T/C", "setting": "dose: 0.5 mg/kg/injection, schedule: Q04DX003 (ip), vehicle: water", "result": "113 % of control"}, {"measurement": "T/C", "setting": "dose: 0.64 mg/kg/injection, schedule: Q04DX003 (ip), vehicle: water", "result": "109 % of control"}, {"measurement": "T/C", "setting": "dose: 1.0 mg/kg/injection, schedule: Q04DX003 (ip), vehicle: water", "result": "119 % of control"}, {"measurement": "T/C", "setting": "dose: 1.08 mg/kg/injection, schedule: Q04DX003 (ip), vehicle: water", "result": "115 % of control"}, {"measurement": "T/C", "setting": "dose: 1.8 mg/kg/injection, schedule: Q04DX003 (ip), vehicle: water", "result": "118 % of control"}, {"measurement": "T/C", "setting": "dose: 1.94 mg/kg/injection, schedule: Q04DX003 (ip), vehicle: water", "result": "118 % of control"}, {"measurement": "T/C", "setting": "dose: 2.0 mg/kg/injection, schedule: Q04DX003 (ip), vehicle: saline with Tween-80", "result": "170 % of control"}, {"measurement": "T/C", "setting": "dose: 3.24 mg/kg/injection, schedule: Q04DX003 (ip), vehicle: water", "result": "124 % of control"}, {"measurement": "T/C", "setting": "dose: 5.0 mg/kg/injection, schedule: Q04DX003 (ip), vehicle: water", "result": "114 % of control"}]}
{"compound": "Nc1c[nH]c(=S)s1", "values": [{"measurement": "T/C", "setting": "dose: 25.0 mg/kg/injection, schedule: Q01DX009 (ip), vehicle: saline with Tween-80", "result": "116 % of control"}, {"measurement": "T/C", "setting": "dose: 50.0 mg/kg/injection, schedule: Q01DX009 (ip), vehicle: saline with Tween-80", "result": "114 % of control"}, {"measurement": "T/C", "setting": "dose: 100.0 mg/kg/injection, schedule: Q01DX009 (ip), vehicle: saline with Tween-80", "result": "94 % of control"}]}
{"compound": "O=C1N(Cc2ccccc2)[C@H]2CS(=O)(=O)C[C@@H]2N1Cc1ccccc1", "values": [{"measurement": "T/C", "setting": "dose: 50.0 mg/kg/injection, schedule: Q01DX005 (ip), vehicle: saline with Tween-80", "result": "87 % of control"}, {"measurement": "T/C", "setting": "dose: 100.0 mg/kg/injection, schedule: Q01DX005 (ip), vehicle: saline with Tween-80", "result": "92 % of control"}, {"measurement": "T/C", "setting": "dose: 200.0 mg/kg/injection, schedule: Q01DX005 (ip), vehicle: saline with Tween-80", "result": "86 % of control"}]}
{"compound": "O=C1CC(c2ccccc2)NCCCCN2C(=O)C=Cc3ccccc3C2CCN1", "note": "(stereo not drawn)", "values": [{"measurement": "T/C", "setting": "dose: 6.25 mg/kg/injection, schedule: Q01DX009 (ip), vehicle: Klucel (hydroxypropylcellulose) (HPC)", "result": "100 % of control"}, {"measurement": "T/C", "setting": "dose: 12.5 mg/kg/injection, schedule: Q01DX009 (ip), vehicle: Klucel (hydroxypropylcellulose) (HPC)", "result": "94 % of control"}]}
{"compound": "CN=C(N)c1ccc(N=C(N)c2ccc(C(N)=Nc3ccc(C(N)=NC)cc3)cc2)cc1", "values": [{"measurement": "T/C", "setting": "dose: 1.3 mg/kg/injection, schedule: Q01DX005 (iv), vehicle: saline", "result": "100 % of control"}, {"measurement": "T/C", "setting": "dose: 5.0 mg/kg/injection, schedule: Q04DX003 (ip), vehicle: saline", "result": "100 % of control"}, {"measurement": "T/C", "setting": "dose: 6.48 mg/kg/injection, schedule: Q04DX002 (ip), vehicle: saline", "result": "92 % of control"}, {"measurement": "T/C", "setting": "dose: 10.0 mg/kg/injection, schedule: Q04DX003 (ip), vehicle: saline", "result": "100 % of control"}, {"measurement": "T/C", "setting": "dose: 10.8 mg/kg/injection, schedule: Q01DX005 (ip), vehicle: water", "result": "120 % of control"}, {"measurement": "T/C", "setting": "dose: 20.0 mg/kg/injection, schedule: Q01DX009 (ip), vehicle: saline", "result": "172 % of control"}, {"measurement": "T/C", "setting": "dose: 30.0 mg/kg/injection, schedule: Q01DX005 (ip), vehicle: saline", "result": "163 % of control"}]}
{"compound": "c1cc(-n2nnc3cnccc32)ccn1", "values": [{"measurement": "T/C", "setting": "dose: 3.12 mg/kg/injection, schedule: Q01DX009 (ip), vehicle: saline", "result": "91 % of control"}, {"measurement": "T/C", "setting": "dose: 6.25 mg/kg/injection, schedule: Q01DX009 (ip), vehicle: saline", "result": "100 % of control"}, {"measurement": "T/C", "setting": "dose: 6.25 mg/kg/injection, schedule: Q04DX003 (ip), vehicle: saline", "result": "109 % of control"}, {"measurement": "T/C", "setting": "dose: 12.5 mg/kg/injection, schedule: Q01DX009 (ip), vehicle: saline", "result": "98 % of control"}, {"measurement": "T/C", "setting": "dose: 12.5 mg/kg/injection, schedule: Q04DX003 (ip), vehicle: saline", "result": "104 % of control"}, {"measurement": "T/C", "setting": "dose: 25.0 mg/kg/injection, schedule: Q01DX009 (ip), vehicle: suspension in saline", "result": "109 % of control"}, {"measurement": "T/C", "setting": "dose: 25.0 mg/kg/injection, schedule: Q04DX003 (ip), vehicle: saline", "result": "100 % of control"}]}
